From patent US8835440B2, “Cyclic pyrimidin-4-carboxamides as CCR2 receptor antagonists for treatment of inflammation, asthma and COPD” (Boehringer Ingelheim International GmbH, priority 2008, dated 2014)
pKi: −log10 of the molar value.

Target: T1, CCR2 (Homo sapiens, UniProt P41597)
T1 construct: Membranes were prepared from THP-1 cells; endogenous in cells; host or cells: THP-1 cells (membrane preparation)
T1 sequence (P41597 1-360 isoform P41597-2): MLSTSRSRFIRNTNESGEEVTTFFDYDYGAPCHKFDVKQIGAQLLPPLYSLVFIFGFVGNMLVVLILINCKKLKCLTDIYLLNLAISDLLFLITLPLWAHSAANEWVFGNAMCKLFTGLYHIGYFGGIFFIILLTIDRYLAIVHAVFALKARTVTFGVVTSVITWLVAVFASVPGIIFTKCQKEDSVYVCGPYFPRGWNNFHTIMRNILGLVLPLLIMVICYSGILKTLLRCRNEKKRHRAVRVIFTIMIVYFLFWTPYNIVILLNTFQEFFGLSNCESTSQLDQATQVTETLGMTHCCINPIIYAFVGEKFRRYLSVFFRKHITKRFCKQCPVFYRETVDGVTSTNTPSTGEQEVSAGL
Test: CCR2 receptor membrane binding assay ([125I]MCP-1, THP-1 cell membranes, SPA beads)
Conditions: for remaining activity at 10 µM: @ 10 μM test compound, THP-1 membranes, read-out: CCR2 % ctrl @ 10 μM; for pKi: dissociation constant hKi, [125I]MCP-1 binding to THP-1 membranes
Method: The above exemplary substances have been tested for binding to CCR2 using a binding assay as outlined herein below:
THP-1 cells (human acute monocytic leukaemia cells) were cultured under standardized conditions at 37° C. and 5% CO2 in a humidified incubator. THP-1 cells were cultivated in RPMI 1640 medium (Gibco 21875) containing 1% MEM-NEAA (Gibso 11140) 2 mM L-glutamine, 1.5 g/L sodium bicarbonate, 4.5 g/L glucose, 10 mM HEPES and 1.0 mM sodium pyruvate, 90%; 10% fetal calf serum (FCS Gibco 10500-064).
Membranes were prepared from THP-1 cells. THP-1 cells were centrifuged at 300×g at 4° C. for 10 min. The cell pellet was resuspendet in Phosphate Buffer Saline (PBS, including 10 μM Pefabloc and a protease inhibitor mix ‘complete’, Boehringer Mannheim (1 tablet/50 ml)), to a concentration of […]. The membrane preparation was performed by disrupting the cells by nitrogen […] (at 50 bar, for 1 h) in a “Nitrogen Bombe” (Parr Instrument). Cell debris was removed by centrifugation (800×g at 4° C., 1 min). The supernatant was centrifuged at 80000×g, 4° C. for 30 min to sediment the cell membranes. Usually 50 mg of protein (Bradford assay) were yielded from 1×10E9 cells. The membranes were resuspendet in 25 mM HEPES, 25 mM MgCl2, 1 mM CaCl2, 10% Glycerine for storage in aliquots at −80° C. in 25 mM HEPES, 25 mM MgCl2, 1 mM CaCl2, 10% Glycerine and stored at −80° C.
Receptor Membrane Binding Assay:
Perkin Elmer NEX 332 Jod 125 MCP-1, Stock: 2200 Ci/mmol solved in 2000 μl assay buffer, stored at −20° C. THP-1 membrane were adjusted with 25 mM HEPES, pH 7.2; 5 mM MgCl2; 0.5 mM CaCl2; 0.2% BSA assay buffer to a concentration of […]. Amersham Biosciences PVT-WGA Beads (RPNQ0001) were adjusted with assay buffer to a concentration of 0.24 mg/30 μl. For preparation of the membrane-bead-suspension membranes and beads were incubated for 30 min at RT under rotation (60 rpm) with a ratio of 1:2. Test compounds dissolved in 100% DMSO to a concentration of 10 mM and are further diluted with 100% DMSO to 1 mM. All additional compound dilutions were obtained with assay buffer, final 1% DMSO. Compounds, membrane-bead-suspension and [125I]MCP-1 (ca. 25000 cpm/10 μl) were incubated. Bound radioactivity was determined by scintillation counter after 8 h. Determination of affinity of test compounds (dissociation constant hKi) is calculated by iterative fitting of experimental data using the “easy sys” program, which is based on law of mass action (Schittkowski K. (1994), Numerische Mathematik, Vol. 68, 129-142).

Compound | remaining activity at 10 µM [%] | pKi
Cc1c(NCC2Cc3ccccc3C2)ncnc1C(=O)N1CCC(N2CCOCC2)CC1 [Example 46] | 12 | 6.65
Cc1c(NCc2ccc(C(F)(F)F)c(Cl)c2)ncnc1C(=O)N1CCC(N2CCOCC2)CC1 [Example 47] | 14 | 6.65
Cc1c(NCc2ccc(F)c(F)c2)ncnc1C(=O)N1CCC(N2CCOCC2)CC1 [Example 48] | 26 | 5.75
Cc1c(NCC2COc3ccccc3C2)ncnc1C(=O)N1CCC(N2CCOCC2)CC1 (stereo not shown) [Example 50] | 22 | 6.03
Cc1c(NCC2CCN(c3ccccc3)C2)ncnc1C(=O)N1CCC(N2CCOCC2)CC1 (stereo not shown) [Example 51] | 13 | 6.54
Cc1c(NCc2ccc(C(C)(C)C)cc2)ncnc1C(=O)N1CCC(N2CCOCC2)CC1 [Example 52] | 12 | 6.76
Cc1c(NCc2ccc(C(C)(C)C)nc2)ncnc1C(=O)N1CCC(N2CCC(N(C)S(C)(=O)=O)CC2)CC1 [Example 54] | 13 | 6.45
CCc1ccc(CNc2ncnc(C(=O)N3CCC(N4CCC(N(C)S(C)(=O)=O)CC4)CC3)c2C)cc1 [Example 56] | 8 | 6.90
Cc1c(NCC2COc3ccccc3C2)ncnc1C(=O)N1CCC(N2CCC(N(C)S(C)(=O)=O)CC2)CC1 (stereo not shown) [Example 57] | 10 | 7.03
Cc1c(NCC2CCN(c3ccccc3)CC2)ncnc1C(=O)N1CCC(N2CCC(N(C)S(C)(=O)=O)CC2)CC1 [Example 58] | 12 | 6.47
Cc1c(NCC2CCN(c3ccccc3)C2)ncnc1C(=O)N1CCC(N2CCC(N(C)S(C)(=O)=O)CC2)CC1 (stereo not shown) [Example 60] | 5 | 7.36
Cc1c(NCC2Cc3ccccc3C2)ncnc1C(=O)N1CCC(N2CCC(N(C)S(C)(=O)=O)CC2)CC1 [Example 61] | 2 | 7.34
Cc1c(NCc2ccc(C(C)C)cc2)ncnc1C(=O)N1CCC(N2CCC(N(C)S(C)(=O)=O)CC2)CC1 [Example 64] | 8 | 7.19
COc1ccc(CNc2ncnc(C(=O)N3CCC(N4CCC(N(C)S(C)(=O)=O)CC4)CC3)c2C)cc1 [Example 67] | 27 | 5.85

Second part, the compound after the results:

remaining activity at 10 µM [%] | pKi | Compound
7 | 7.01 | Cc1c(NCc2ccc(Cl)cc2)ncnc1C(=O)N1CCC(N2CCC(N(C)S(C)(=O)=O)CC2)CC1 [Example 49]
4 | 7.74 | Cc1c(NCCc2ccc(Cl)c(Cl)c2)ncnc1C(=O)N1CCC(N2CCC(N(C)S(C)(=O)=O)CC2)CC1 [Example 53]
17 | 6.70 | Cc1cc(CNc2ncnc(C(=O)N3CCC(N4CCC(N(C)S(C)(=O)=O)CC4)CC3)c2C)ccc1F [Example 55]
5 | 7.26 | Cc1ccc(CNc2ncnc(C(=O)N3CCC(N4CCC(N(C)S(C)(=O)=O)CC4)CC3)c2C)cc1Cl [Example 59]
3 | 7.42 | Cc1c(NCc2ccc(C(F)(F)F)c(Cl)c2)ncnc1C(=O)N1CCC(N2CCC(N(C)S(C)(=O)=O)CC2)CC1 [Example 62]
7 | 7.27 | Cc1c(NCc2ccc(Cl)c(F)c2)ncnc1C(=O)N1CCC(N2CCC(N(C)S(C)(=O)=O)CC2)CC1 [Example 63]
8 | 6.75 | Cc1ccc(CNc2ncnc(C(=O)N3CCC(N4CCC(N(C)S(C)(=O)=O)CC4)CC3)c2C)cc1F [Example 65]
8 | 6.86 | Cc1c(NCc2cccc(Cl)c2)ncnc1C(=O)N1CCC(N2CCC(N(C)S(C)(=O)=O)CC2)CC1 [Example 66]
7 | 7.01 | Cc1c(NCc2ccc(F)c(Cl)c2)ncnc1C(=O)N1CCC(N2CCC(N(C)S(C)(=O)=O)CC2)CC1 [Example 68]
